According to PubChem BioAssay (NCI):
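Method: 48-hour compound exposure of cells in 96-well plates, five concentrations, linear interpolation of endpoints. The concentration for full growth arrest is given as TGI.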

Key:
Experiment in all cases: inhibition of tumour cell growth, NCI panel, 48 h
786-0 renal = test system: 786-0 renal
A498 renal = test system: A498 renal
A549 NSCLC = test system: A549 NSCLC
ACHN renal = test system: ACHN renal
BT-549 breast = test system: BT-549 breast
CAKI-1 renal = test system: CAKI-1 renal
CCRF-CEM leukemia = test system: CCRF-CEM leukemia
COLO 205 colon = test system: COLO 205 colon
DU-145 prostate = test system: DU-145 prostate
EKVX NSCLC = test system: EKVX NSCLC
HCC-2998 colon = test system: HCC-2998 colon
HCT-116 colon = test system: HCT-116 colon
HCT-15 colon = test system: HCT-15 colon
HL-60(TB) leukemia = test system: HL-60(TB) leukemia
HOP-62 NSCLC = test system: HOP-62 NSCLC
HOP-92 NSCLC = test system: HOP-92 NSCLC
HS 578T breast = test system: HS 578T breast
HT29 colon = test system: HT29 colon
IGROV1 ovarian = test system: IGROV1 ovarian
K-562 leukemia = test system: K-562 leukemia
KM12 colon = test system: KM12 colon
LOX IMVI melanoma = test system: LOX IMVI melanoma
M14 melanoma = test system: M14 melanoma
MALME-3M melanoma = test system: MALME-3M melanoma
MCF7 breast = test system: MCF7 breast
MDA-MB-231 breast = test system: MDA-MB-231 breast
MDA-MB-435 = test system: MDA-MB-435
MDA-N = test system: MDA-N
MOLT-4 leukemia = test system: MOLT-4 leukemia
NCI-H226 lung = test system: NCI-H226 lung
NCI-H23 lung = test system: NCI-H23 lung
NCI-H460 lung = test system: NCI-H460 lung
NCI-H522 lung = test system: NCI-H522 lung
NCI/ADR-RES ovarian = test system: NCI/ADR-RES ovarian
OVCAR-3 ovarian = test system: OVCAR-3 ovarian
OVCAR-4 ovarian = test system: OVCAR-4 ovarian
OVCAR-5 ovarian = test system: OVCAR-5 ovarian
OVCAR-8 ovarian = test system: OVCAR-8 ovarian
PC-3 prostate = test system: PC-3 prostate
RPMI-8226 leukemia = test system: RPMI-8226 leukemia
RXF 393 renal = test system: RXF 393 renal
SF-268 CNS = test system: SF-268 CNS
SF-295 CNS = test system: SF-295 CNS
SF-539 CNS = test system: SF-539 CNS
SK-MEL-2 melanoma = test system: SK-MEL-2 melanoma
SK-MEL-28 melanoma = test system: SK-MEL-28 melanoma
SK-MEL-5 melanoma = test system: SK-MEL-5 melanoma
SK-OV-3 ovarian = test system: SK-OV-3 ovarian
SN12C renal = test system: SN12C renal
SNB-19 CNS = test system: SNB-19 CNS
SNB-75 CNS = test system: SNB-75 CNS
SR leukemia = test system: SR leukemia
SW-620 colon = test system: SW-620 colon
T-47D breast = test system: T-47D breast
TK-10 renal = test system: TK-10 renal
U251 CNS = test system: U251 CNS
UACC-257 melanoma = test system: UACC-257 melanoma
UACC-62 melanoma = test system: UACC-62 melanoma
UO-31 renal = test system: UO-31 renal

## COc1ccc2nc3c([N+](=O)[O-])ccc4c3c(c2c1)N(CCCN(C)C)C(=S)N4CCCN(C)C
786-0 renal
  TGI: 15.7 µM
A498 renal
  TGI: 33.5 µM
A549 NSCLC
  TGI: 22.2 µM
ACHN renal
  TGI: 17.9 µM
BT-549 breast
  TGI: 30.8 µM
CAKI-1 renal
  TGI: 29.1 µM
CCRF-CEM leukemia
  TGI: > 100 µM
COLO 205 colon
  TGI: 6.01 µM
DU-145 prostate
  TGI: 20.2 µM
EKVX NSCLC
  TGI: 31 µM
HCC-2998 colon
  TGI: 10.1 µM
HCT-116 colon
  TGI: 15.9 µM
HCT-15 colon
  TGI: 28.7 µM
HL-60(TB) leukemia
  TGI: > 100 µM
HOP-62 NSCLC
  TGI: 22.7 µM
HOP-92 NSCLC
  TGI: 21.3 µM
HS 578T breast
  TGI: 31.1 µM
HT29 colon
  TGI: 11.2 µM
IGROV1 ovarian
  TGI: 24.3 µM
K-562 leukemia
  TGI: > 40 µM
KM12 colon
  TGI: 10.2 µM
LOX IMVI melanoma
  TGI: 14.4 µM
M14 melanoma
  TGI: 20.4 µM
MALME-3M melanoma
  TGI: 12.4 µM
MCF7 breast
  TGI: 19.2 µM
MDA-MB-231 breast
  TGI: 22.6 µM
MDA-MB-435
  TGI: 19.1 µM
MDA-N
  TGI: 21.3 µM
MOLT-4 leukemia
  TGI: > 100 µM
NCI-H226 lung
  TGI: 22.4 µM
NCI-H23 lung
  TGI: 30 µM
NCI-H460 lung
  TGI: 9.75 µM
NCI-H522 lung
  TGI: 7.58 µM
NCI/ADR-RES ovarian
  TGI: 24.4 µM
OVCAR-3 ovarian
  TGI: 21.2 µM
OVCAR-4 ovarian
  TGI: 70.7 µM
OVCAR-5 ovarian
  TGI: 34.6 µM
OVCAR-8 ovarian
  TGI: 21.5 µM
PC-3 prostate
  TGI: 18 µM
RPMI-8226 leukemia
  TGI: 22.8 µM
RXF 393 renal
  TGI: 22.9 µM
SF-268 CNS
  TGI: 35.3 µM
SF-295 CNS
  TGI: 19.5 µM
SF-539 CNS
  TGI: 22 µM
SK-MEL-2 melanoma
  TGI: 34.2 µM
SK-MEL-28 melanoma
  TGI: 37.4 µM
SK-MEL-5 melanoma
  TGI: 12.3 µM
SK-OV-3 ovarian
  TGI: 34.4 µM
SN12C renal
  TGI: 19.2 µM
SNB-19 CNS
  TGI: 25.8 µM
SNB-75 CNS
  TGI: 29.3 µM
SR leukemia
  TGI: > 100 µM
SW-620 colon
  TGI: 16.4 µM
T-47D breast
  TGI: 43 µM
TK-10 renal
  TGI: 23.8 µM
U251 CNS
  TGI: 20.2 µM
UACC-257 melanoma
  TGI: 15.5 µM
UACC-62 melanoma
  TGI: 34.4 µM
UO-31 renal
  TGI: 25.9 µM

## O=C(c1ccc(Cl)c(Cl)c1)N(Cc1cccnc1)C(=S)N(Cc1cccnc1)C(=O)c1ccc(Cl)c(Cl)c1
786-0 renal
  TGI: 54.2 µM
A498 renal
  TGI: 79.4 µM
A549 NSCLC
  TGI: > 100 µM
ACHN renal
  TGI: 36.2 µM
BT-549 breast
  TGI: 65.8 µM
CAKI-1 renal
  TGI: > 100 µM
CCRF-CEM leukemia
  TGI: > 100 µM
COLO 205 colon
  TGI: 32.2 µM
DU-145 prostate
  TGI: > 100 µM
EKVX NSCLC
  TGI: > 100 µM
HCC-2998 colon
  TGI: 39.8 µM
HCT-116 colon
  TGI: 63.4 µM
HCT-15 colon
  TGI: 64.2 µM
HL-60(TB) leukemia
  TGI: > 100 µM
HOP-62 NSCLC
  TGI: 83.6 µM
HOP-92 NSCLC
  TGI: > 100 µM
HS 578T breast
  TGI: > 100 µM
HT29 colon
  TGI: 65.1 µM
K-562 leukemia
  TGI: > 100 µM
KM12 colon
  TGI: > 100 µM
LOX IMVI melanoma
  TGI: > 100 µM
M14 melanoma
  TGI: 52.9 µM
MALME-3M melanoma
  TGI: > 100 µM
MCF7 breast
  TGI: > 100 µM
MDA-MB-231 breast
  TGI: 99.1 µM
MDA-MB-435
  TGI: > 100 µM
MDA-N
  TGI: > 100 µM
MOLT-4 leukemia
  TGI: > 100 µM
NCI-H226 lung
  TGI: > 100 µM
NCI-H23 lung
  TGI: > 100 µM
NCI-H460 lung
  TGI: > 100 µM
NCI-H522 lung
  TGI: 41.9 µM
NCI/ADR-RES ovarian
  TGI: > 100 µM
OVCAR-3 ovarian
  TGI: 78.3 µM
OVCAR-4 ovarian
  TGI: > 100 µM
OVCAR-5 ovarian
  TGI: 71.7 µM
OVCAR-8 ovarian
  TGI: 84.5 µM
PC-3 prostate
  TGI: 83.4 µM
RPMI-8226 leukemia
  TGI: > 100 µM
RXF 393 renal
  TGI: 79.6 µM
SF-268 CNS
  TGI: > 100 µM
SF-295 CNS
  TGI: 67.1 µM
SF-539 CNS
  TGI: 45.5 µM
SK-MEL-2 melanoma
  TGI: 95.7 µM
SK-MEL-28 melanoma
  TGI: > 100 µM
SK-MEL-5 melanoma
  TGI: 75.7 µM
SK-OV-3 ovarian
  TGI: > 100 µM
SN12C renal
  TGI: 52.2 µM
SNB-19 CNS
  TGI: 88.4 µM
SNB-75 CNS
  TGI: > 100 µM
SR leukemia
  TGI: > 100 µM
SW-620 colon
  TGI: > 100 µM
T-47D breast
  TGI: > 100 µM
TK-10 renal
  TGI: 79.8 µM
U251 CNS
  TGI: > 100 µM
UACC-257 melanoma
  TGI: 91.5 µM
UACC-62 melanoma
  TGI: > 100 µM
UO-31 renal
  TGI: 33.2 µM
